The values below come from patent US20250375450A1, “SMARCA2/4 INHIBITION AS A STRATEGY TO TREAT TUMORS THAT HARBOR ABERRANT BAF ASSEMBLIES” (BOARD OF REGENTS, THE UNIVERSITY OF TEXAS SYSTEM, priority 2022, published 2025).

Entries after “also recorded” stand apart in the source; their conditions may differ.

Format in all cases: cell-based
Test [1] concerns ES3 (Ewing's sarcoma) cells. Briefly: Apoptosis, IncuCyte Caspase-3/7 green reagent. The method, then: (§1) Referring to FIG. 11A and FIG. 11B, RH4 (FIG. 11A) and ES3 (FIG. 11B) cells were treated with the indicated concentrations of BAF-X-1 or DMSO in triplicate and apoptosis was detected using the IncuCyte Caspase 3/7 green dye (Sartorius). Brightfield and green fluorescence images were captured every 2 hours from 4 fields per well on the IncuCyte live cell imager. The proportion of caspase positive (green) cells relative to % confluence of the well was calculated on the IncuCyte software and plotted against time. Referring to FIG. 11C and FIG. 11D, RH41 cells were treated with 7.5 μM AT-301 (FIG. 11D) or DMSO (FIG. 11C) for 24 hours, harvested with accutase, washed, and fixed in 70% ethanol. They were subsequently stained with propidium iodide/RNase and fluorescence was analyzed on BD flow cytometer. Resulting data was analyzed using FlowJo software.
(§2) The medium was then replaced with fresh medium containing dilutions of the compound (AT-301) or DMSO (as a negative control), and 1× IncuCyte Caspase-3/7 green reagent (Sartorius) and proliferation/apoptosis was measured on IncuCyte live-cell imaging system. The treated cells were imaged every (2/4) hours and four fields from each well were imaged for analysis.

Test [2] has as its system RH41 (rhabdomyosarcoma) cells. Briefly: Apoptosis, IncuCyte Caspase-3/7 green reagent. The method, then:
as §1, §2

Test [3] relates to DAOY. Kind of test: Cell proliferation assay and IC50 measurement (PrestoBlue). The conditions noted are these: Homo sapiens, PrestoBlue cell viability. The method, then: (§3) FIG. 10A-C show representative data illustrating that AT-301 kills Ewing's, RMS, GBM, AML, and other cancer cells. Cell lines were treated with serial dilutions (2×) of AT-301, and IC50 values of each cell line were determined using PrestoBlue dye for cell viability following manufacturer's protocol (Invitrogen, A13261). See also Table 3.
(§4) DAOY, D556 cells: EMEM, 10% FBS, Penicillin (100 units/mL) and streptomycin (100 μg/mL) in the presence of 5% CO2.
(§5) Proliferation of adherent cells was determined on the IncuCyte live-cell imaging system (Essen BioScience). Cells were seeded on clear bottom 96 well plates at a seeding density of 2000 cells/well. Cells were allowed to attach overnight after which the medium was replaced with fresh medium containing serial dilutions (2×) of the compound or DMSO control. Percent confluence was calculated by the IncuCyte software from four different images per well from at least three replicate wells. For non-adherent cells, the 96-well plates were coated with poly-L-lysine before seeding to facilitate cell adhesion. At the end of the assay, dose-dependent cell viability was determined by staining the cells with PrestoBlue (Invitrogen, A13261) as per manufacturer's instructions and IC50 was calculated (FIG. 10).

Test [4] concerns D556. The test is described as above. The conditions noted are these: PrestoBlue cell viability. The method, then:
as §3, §4, §5

Test [5] relates to Ewing Sarcoma cell lines. Briefly: Growth of Ewing Sarcoma cell lines, live cell imaging (Incucyte S3) confluency. The method, then: Briefly, human SMARCA2 was purified, and a high-throughput screen (HTS) of 40,000 compounds was conducted. […] In brief, cells were grown in RPMI media supplemented with 10% Fetal bovine serum (FBS), 1× penicillin, and streptomycin antibiotics. Cells were placed in an incubator with 5% C02 and 50% humidity. When cells reached 90% confluency, cells were harvested, washed twice in 1×PBS, counted using trypan blue exclusion method. Then cells were seeded in 96-well plates (duplicates, n=2) at the density of 20,000 cells per well. Allowed them to attach to the bottom of the well for 1 to 2 hrs and treated with different concentration of AT-301 compound starting at highest concentration of 10 micromolar to serial dilution of the compound to the lowest concentration of 0.039 micromolar. Cells treated with only DMSO were also included as negative control. Cells were monitored for 72 hrs. by live cell imaging method (Incucyte S3) taking images every two hours. The confluency was determined and plotted against time (hours) by using Prism software.

For the compound `Clc1ccc(CNc2nc(NC3CCCC3)nc3ccccc23)cc1Cl` [AT-301, N^2-cyclopentyl-N^4-(3,4-dichlorobenzyl)quinazoline-2,4-diamine], the “Apoptosis (caspase 3/7)” value in test [1] and in test [2] was “induces apoptosis” in each case. Also, the concentration for half-maximal inhibition (IC50) in test [3] is 4.19 µM; in test [4], 3.02 µM; in test [5] (8 different Ewing Sarcoma cell lines, 72 hrs live cell imaging) it was approximately 5 µM. In addition, the “Growth of Ewing Sarcoma cell lines” value in test [5] (live cell imaging, confluency) is listed as “attenuate the growth; also recorded: strongly attenuated the growth”.

Broadly, the IC50 is the concentration at which inhibition is half-maximal.
